Source: patent US5272054A, “Assay by enzyme-catalyzed isotopic exchange” (Syntex (U.S.A.) Inc., priority 1992, dated 1993)

What was measured:
D-lactate dehydrogenase = assay: Isotopic exchange assay using D-lactate dehydrogenase: specificity; assay type: biochemical; settings: enzyme from Lactobacillus plantarum; for interference with assay results: D-lactate / pyruvate assay
Description: D-lactate and pyruvate in plasma are determined using D-lactate dehydrogenase from Lactobacillus leichmannii (Sigma or Boehringer-Mannheimbiochemicals) obtained by the procedure of Brandt, R. B. "Methods in Enzymology", vol. 89, page 35 (Academic Press, New York, 1982), pages 35-40 of which are incorporated herein by reference. The assay will detect D-lactate concentrations in plasma from 0.006 to 1.2 mM and at higher concentrations in food or microbiological samples. If the enzyme is from Lactobacillus plantarum obtained according to Dennis, D.; Kaplan, N. O. J. Bio.

homoserine dehydrogenase = assay: Isotopic exchange assay using homoserine dehydrogenase: specificity; assay type: biochemical, Baker's Yeast; settings: for interference with assay results: homoserine / aspartic-β-semialdehyde assay
Description: Homoserine and aspartic-β-semialdehyde are determined using homoserine dehydrogenase from Baker's Yeast (Anheuser-Busch) obtained by the procedure of Black, S. "Methods in Enzymology", vol. V, page 820 (Academic Press, New York, 1962), pages 824-827 of which are incorporated herein by reference. […] Other non-interfering substances will include 3-aminopropanol, γ-hydroxybutyrate, acetaldehyde, DL-threonine, DL-serine, and DL-homocysteine. DL-glutamic γ-semialdehyde will react at 1% of the rate of aspartic-β-semialdehyde.

[1] = test system: ω-hydroxydecanoate dehydrogenase; assay: Isotopic exchange assay using ω-hydroxydecanoate dehydrogenase: specificity; assay type: biochemical, rabbit; settings: for relative rate of reaction: value in brackets after the substrate; for interference with assay results: 10-hydroxydecanoate / 10-oxodecanoate assay
Description: The enzyme obtained will be contaminated to some degree with L-lactate dehydrogenase (I.U.B. 1.1.1.27).

[2] = test system: soluble 17β-hydroxysteroid dehydrogenase; assay: Isotopic exchange assay using 17β-hydroxysteroid dehydrogenase: specificity; assay type: biochemical, human
Description: Estradiol-17β and estrone are determined using soluble 17β-hydroxysteroid dehydrogenase from human term placenta obtained by the procedure of Jarabak, J. "Methods in Enzymology", vol.

fructuronate reductase = assay: Isotopic exchange assay using fructuronate reductase: specificity; assay type: biochemical, Escheria coli K-12 strain S 3000 (Hfr H); settings: for interference with assay results: D-mannonate / D-fructuronate assay
Description: D-mannonate and D-fructuronate are determined using fructuronate reductase from Escheria coli K-12 strain S 3000 (Hfr H) obtained by the procedure of Portalier, R.; Stoeber, F. "Methods in Enzymology", vol. 89, page 210 (Academic Press, New York, 1982), pages 210-218 of which are incorporated herein by reference. […] D-tagaturonate and D-altronate are 20% as active as D-fructuronate and D-mannonate, respectively.

[3] = test system: 15-hydroxyprostaglandin dehydrogenase; assay: Isotopic exchange assay using 15-hydroxyprostaglandin dehydrogenase: specificity; assay type: biochemical, pig
Description: 11α,15-dihydroxy-9-oxoprost-13-enoate and 11α-hydroxy-9, 15-dioxoprost-13-enoate are determined using 15-hydroxyprostaglandin dehydrogenase from pig lung obtained by the procedure of Anggard, E.; Samuelsson, B. "Methods in Enzymology", vol. 14, page 215 (Academic Press, New York, 1969), pages 215-219 of which are incorporated herein by reference. The assay will detect most 15-hydroxy or 15-oxo-prostaglandins except those containing the dienone chromophore such as prostaglandin B compounds and their 19-hydroxylated derivatives.

[4] = test system: 21-hydroxysteroid dehydrogenase; assay: Isotopic exchange assay using 21-hydroxysteroid dehydrogenase: specificity; assay type: biochemical, sheep
Description: Cortisol and 21-dehydrocortisol are determined using AND dependent 21-hydroxysteroid dehydrogenase from sheep liver obtained by the procedure of Monder, C.; Furfine, C. S. "Methods in Enzymology", vol. […] 21-hydroxy-derivatives of cortisol, cortisone, corticosterone, 11-deoxycortisol, Δ^1 -cortisone, Δ^1 -cortisol, 11-deoxycorticosterone, and 9α-fluorocortisol will all be assayed using this enzyme.

CCCC[C@@H](O)C(=O)O
interference with assay results (D-lactate dehydrogenase): will not interfere with the assay results

CC(C)C[C@@H](O)C(=O)O
interference with assay results (D-lactate dehydrogenase): will not interfere with the assay results

NC(CCC=O)C(=O)O (racemic) [DL-glutamic γ-semialdehyde]
rate of reaction relative to aspartic-β-semialdehyde (homoserine dehydrogenase): 1%

NC(CCS)C(=O)O (racemic) [DL-homocysteine]
interference with assay results (homoserine dehydrogenase): non-interfering

NC(CO)C(=O)O (racemic) [DL-serine]
interference with assay results (homoserine dehydrogenase): non-interfering

C[C@@H](O)[C@H](N)C(=O)O (racemic) [DL-threonine]
interference with assay results (homoserine dehydrogenase): non-interfering

CC[C@@H](O)C(=O)O [2-hydroxy-D-butyrate]
interference with assay results (D-lactate dehydrogenase): will not interfere with the assay results

NCCCO [3-aminopropanol]
interference with assay results (homoserine dehydrogenase): non-interfering

O=C(O)CCCCCCCCCO [10-hydroxycaproate]
relative rate of reaction [1]: 0.90

O=C(O)CCCCCCCCCCO [11-hydroxy undecanoate]
relative rate of reaction [1]: 100

C[C@]12CC[C@@H]3c4ccc(O)cc4CC[C@H]3[C@@H]1C[C@H](O)C2 [16β-estradiol]
interference with assay results ([2]; estradiol-17β / estrone assay): will not interfere with the assay results

C[C@H](O)[C@H]1CC[C@H]2[C@@H]3CCC4=CC(=O)CC[C@]4(C)[C@H]3CC[C@]12C [20α-hydroxy derivative]
rate of reaction relative to estrone [2]: one-fiftieth

O=C(CO)[C@@H](O)[C@H](O)[C@H](O)[C@H](O)CO [D-altro-heptulose]
interference with assay results (fructuronate reductase): will not interfere with assay results

O=C[C@@H](O)[C@H](O)[C@H](O)CO [D-arabinose]
interference with assay results (fructuronate reductase): will not interfere with assay results

O=C(CO)[C@@H](O)[C@H](O)[C@H](O)CO [D-fructose]
interference with assay results (fructuronate reductase): will not interfere with assay results

O=C[C@H](O)[C@@H](O)[C@@H](O)[C@H](O)CO [D-galactose]
interference with assay results (fructuronate reductase): will not interfere with assay results

O=C[C@H](O)[C@@H](O)[C@H](O)[C@H](O)CO [D-glucose]
interference with assay results (fructuronate reductase): will not interfere with assay results

O=C[C@@H](O)[C@@H](O)[C@H](O)[C@H](O)C(O)CO (stereo partly drawn) [D-manno-heptose]
interference with assay results (fructuronate reductase): will not interfere with assay results

O=C[C@@H](O)[C@@H](O)[C@H](O)[C@H](O)CO [D-mannose]
interference with assay results (fructuronate reductase): will not interfere with assay results

O=C[C@H](O)[C@H](O)[C@H](O)CO [D-ribose]
interference with assay results (fructuronate reductase): will not interfere with assay results

O=C(CO)[C@H](O)[C@H](O)CO [D-ribulose]
interference with assay results (fructuronate reductase): will not interfere with assay results

O=C(CO)[C@H](O)[C@@H](O)[C@H](O)CO [D-sorbose]
interference with assay results (fructuronate reductase): will not interfere with assay results

O=C(CO)[C@@H](O)[C@@H](O)[C@H](O)CO [D-tagatose]
interference with assay results (fructuronate reductase): will not interfere with assay results

O=C[C@H](O)[C@@H](O)[C@H](O)CO [D-xylose]
interference with assay results (fructuronate reductase): will not interfere with assay results

CC(C)[C@@H](O)C(=O)O [Disovalerate]
interference with assay results (D-lactate dehydrogenase): will not interfere with the assay results

O=C[C@H](O)[C@@H](O)[C@@H](O)CO [L-arabinose]
interference with assay results (fructuronate reductase): will not interfere with assay results

C[C@H](O)C(=O)O [L-lactate]
interference with assay results (D-lactate dehydrogenase): will not interfere with the assay results

O=C[C@H](O)[C@H](O)[C@@H](O)CO [L-lyxose]
interference with assay results (fructuronate reductase): will not interfere with assay results

O=C[C@@H](O)[C@H](O)[C@@H](O)CO [L-xylose]
interference with assay results (fructuronate reductase): will not interfere with assay results

CC(=O)[C@H]1CC[C@H]2[C@@H]3CCC4=CC(=O)CC[C@]4(C)[C@H]3CC[C@]12C [Progesterone]
rate of reaction relative to estrone [2]: one-fiftieth

CC=O [acetaldehyde]
interference with assay results (homoserine dehydrogenase): non-interfering

CCO [ethanol]
interference with assay results [1]: will not interfere with assay results

NCCO [ethanolamine]
interference with assay results [1]: will not interfere with assay results

Cc1ncc(CO)c(CO)c1O [pyridoxine]
interference with assay results [1]: will not interfere with assay results

N[C@@H](CO)C(=O)O [serine]
interference with assay results [1]: will not interfere with assay results

C[C@@H](O)[C@H](N)C(=O)O [threonine]
interference with assay results [1]: will not interfere with assay results

nicotinamide adenine dinucleotide phosphate [NAD(P)]
replacement of NAD as cofactor (D-lactate dehydrogenase): will not replace NAD
replacement of NAD as cofactor [3]: will not replace NAD
replacement of NAD as cofactor [4]: will not replace NAD
substitution for NAD as cofactor (fructuronate reductase): will not substitute for AND
